Among the data in ChEMBL document CHEMBL4265897, “Discovery of benzothiazole amides as potent antimycobacterial agents” (Bioorg Med Chem Lett, 2018) are MIC values, retold here.

The term MIC denotes the lowest concentration found to suppress growth. Read a high MIC as weaker potency.

In experiment [1] the test system is Mycolicibacterium peregrinum. The experiment can be described thus: Antimycobacterial activity against Mycobacterium peregrinum ATCC 700686 by CLSI method. It is filed as functional.
In experiment [2] the test system is Mycolicibacterium fortuitum. The experiment can be described thus: Antimycobacterial activity against Mycobacterium fortuitum 41 by CLSI method. It is filed as functional.
Experiment [3] has as its system Mycobacteroides abscessus. The experiment can be described thus: Antimycobacterial activity against Mycobacterium abscessus 1 by CLSI method. The experiment is classed as functional.
The test system of experiment [4] is Mycobacteroides abscessus. The experiment can be described thus: Antimycobacterial activity against Mycobacterium massiliense 119 by CLSI method. The experiment is classed as functional, Mycobacterium abscessus subsp. massiliense.
In experiment [5] the test system is Mycobacteroides abscessus. The experiment can be described thus: Antimycobacterial activity against Mycobacterium abscessus 21 by CLSI method. The experiment is classed as functional.
In experiment [6] the test system is Mycobacteroides abscessus. The experiment can be described thus: Antimycobacterial activity against Mycobacterium abscessus 79 by CLSI method. The experiment is classed as functional.
The next experiment concerns Mycobacterium avium. The experiment can be described thus: Antimycobacterial activity against Mycobacterium avium 101 by CLSI method. The experiment is classed as functional.
The subject of experiment [7] is Mycobacteroides abscessus. The experiment can be described thus: Antimycobacterial activity against Mycobacterium abscessus 103 by CLSI method. It is filed as functional.
Experiment [8] concerns Mycobacterium intracellulare. The experiment can be described thus: Antimycobacterial activity against Mycobacterium intracellulare 1956 by CLSI method. It is filed as functional.
A further experiment deals with Mycobacteroides chelonae. The experiment can be described thus: Antimycobacterial activity against Mycobacterium chelonae 93 by CLSI method. It is filed as functional.
In experiment [9] the test system is Mycobacterium tuberculosis. The experiment can be described thus: Antimycobacterial activity against Mycobacterium tuberculosis H37Rv MC2 6206 by CLSI method. The experiment is classed as functional.

Converted amounts (≈) assume the structure as drawn. Some results are limits rather than exact numbers.

Take `CC12CCCC(C(=O)Nc3nc4cc(F)cc(F)c4s3)(CCC1)C2`: the MIC in experiment [1] is 0.06 µg/mL (≈ 0.171 µM); in experiment [2], 0.25 µg/mL (≈ 0.713 µM); in experiment [3], 0.12 µg/mL (≈ 0.342 µM); in [4], 0.25 µg/mL (≈ 0.713 µM); in [5] it was 0.06 µg/mL (≈ 0.171 µM); in experiment [6] it was 0.06 µg/mL (≈ 0.171 µM). The MIC against Mycobacterium avium came out at 4 µg/mL (≈ 11.4 µM); in [7], 0.06 µg/mL (≈ 0.171 µM); in experiment [8], 4 µg/mL (≈ 11.4 µM); against Mycobacteroides chelonae it was 0.06 µg/mL (≈ 0.171 µM).

As to `CC1(C(=O)Nc2nc3ccc(OC(F)(F)F)cc3s2)CCCCCC1`, the MIC in experiment [1] came out at 0.5 µg/mL (≈ 1.34 µM); in experiment [2], 2 µg/mL (≈ 5.37 µM); in experiment [3], 0.25 µg/mL (≈ 0.671 µM); in experiment [4], 0.12 µg/mL (≈ 0.322 µM); in experiment [5] it was 0.12 µg/mL (≈ 0.322 µM); in [6] it was 0.12 µg/mL (≈ 0.322 µM). In addition, the MIC came to 8 µg/mL (≈ 21.5 µM) against Mycobacterium avium, 0.25 µg/mL (≈ 0.671 µM) in [7], 4 µg/mL (≈ 10.7 µM) in experiment [8] and 0.25 µg/mL (≈ 0.671 µM) against Mycobacteroides chelonae.

Turning to `O=C(Nc1nc2ccc(C(F)(F)F)cc2s1)C1CCCC(C(F)(F)F)C1` (stereo not given), the MIC in experiment [1] is 1 µg/mL (≈ 2.52 µM); in [2], 2 µg/mL (≈ 5.05 µM); in experiment [3], 2 µg/mL (≈ 5.05 µM); in experiment [4] it was 1 µg/mL (≈ 2.52 µM); in experiment [5] it was 1 µg/mL (≈ 2.52 µM); in experiment [6], 2 µg/mL (≈ 5.05 µM). The MIC with Mycobacterium avium stood at 16 µg/mL (≈ 40.4 µM); in [8], 16 µg/mL (≈ 40.4 µM); against Mycobacteroides chelonae it was 0.5 µg/mL (≈ 1.26 µM).

Consider `CC12CCCC(C(=O)Nc3nc4ccc(Br)cc4s3)(CCC1)C2`, for which the MIC in experiment [1] is 0.12 µg/mL (≈ 0.305 µM); in experiment [2], 0.5 µg/mL (≈ 1.27 µM); in experiment [3], 0.25 µg/mL (≈ 0.636 µM); in experiment [4], 0.12 µg/mL (≈ 0.305 µM); in [5], 0.12 µg/mL (≈ 0.305 µM); in [6], 0.12 µg/mL (≈ 0.305 µM). Further, the MIC in the experiment with Mycobacterium avium was determined as 8 µg/mL (≈ 20.3 µM); in [7] it was 0.12 µg/mL (≈ 0.305 µM); in experiment [8], 4 µg/mL (≈ 10.2 µM); with Mycobacteroides chelonae it was 0.25 µg/mL (≈ 0.636 µM).

For `CC1CC(C(=O)Nc2nc3cc(Cl)cc(Cl)c3s2)CC(C)(C)C1` (stereo not given), the MIC in [1] is 0.12 µg/mL (≈ 0.323 µM); in [2] it was 0.25 µg/mL (≈ 0.673 µM); in experiment [9] it was 1 µg/mL (≈ 2.69 µM); in [4] it was 0.25 µg/mL (≈ 0.673 µM); in experiment [5], 0.25 µg/mL (≈ 0.673 µM); in [6], 0.12 µg/mL (≈ 0.323 µM). Further, the MIC against Mycobacterium avium stood at 8 µg/mL (≈ 21.5 µM); in experiment [7] it was 0.5 µg/mL (≈ 1.35 µM); in [8] it was 16 µg/mL (≈ 43.1 µM); against Mycobacteroides chelonae it was 0.12 µg/mL (≈ 0.323 µM).

Consider `CC1(C)CCCC(C(=O)Nc2nc3ccc(C(F)(F)F)cc3s2)C1` (stereo not given), for which the MIC in experiment [1] was 64 µg/mL (≈ 180 µM); in experiment [2], > 64 µg/mL; in [3], > 64 µg/mL; in [4], 0.5 µg/mL (≈ 1.4 µM); in experiment [5], 64 µg/mL (≈ 180 µM); in experiment [6] it was 64 µg/mL (≈ 180 µM). In addition, the MIC against Mycobacterium avium is > 64 µg/mL; in experiment [8], > 64 µg/mL; against Mycobacteroides chelonae, 0.25 µg/mL (≈ 0.701 µM).

Take `CC1CC(C(=O)Nc2nc3cccc(O)c3s2)CC(C)(C)C1` (stereo not given): the MIC in experiment [1] came out at 0.12 µg/mL (≈ 0.377 µM); in [2], 2 µg/mL (≈ 6.28 µM); in [4], 2 µg/mL (≈ 6.28 µM); in [5], 16 µg/mL (≈ 50.2 µM); in experiment [6], 8 µg/mL (≈ 25.1 µM); in experiment [7], 2 µg/mL (≈ 6.28 µM). Besides, the MIC in experiment [8] amounted to 4 µg/mL (≈ 12.6 µM); with Mycobacteroides chelonae, 1 µg/mL (≈ 3.14 µM).

Regarding `CC1CC(C(=O)Nc2nc3cc(F)cc(F)c3s2)CC(C)(C)C1` (stereo not given), the MIC in [1] turned out to be 0.12 µg/mL (≈ 0.355 µM); in experiment [2], 0.25 µg/mL (≈ 0.739 µM); in experiment [3], 0.5 µg/mL (≈ 1.48 µM); in experiment [4], 0.25 µg/mL (≈ 0.739 µM); in experiment [5], 0.25 µg/mL (≈ 0.739 µM); in experiment [6], 0.25 µg/mL (≈ 0.739 µM). Besides, the MIC with Mycobacterium avium was found to be 8 µg/mL (≈ 23.6 µM); in experiment [7], 0.25 µg/mL (≈ 0.739 µM); in [8] it was 8 µg/mL (≈ 23.6 µM); in the experiment on Mycobacteroides chelonae it was 0.25 µg/mL (≈ 0.739 µM).

Regarding `CC12CCCC(C(=O)Nc3nc4ccc(OC(F)F)cc4s3)(CCC1)C2`, the MIC in experiment [1] was found to be 0.12 µg/mL (≈ 0.315 µM); in [2], 1 µg/mL (≈ 2.63 µM); in experiment [3], 0.25 µg/mL (≈ 0.657 µM); in experiment [4] it was 0.12 µg/mL (≈ 0.315 µM); in [5], 0.12 µg/mL (≈ 0.315 µM); in [6], 0.12 µg/mL (≈ 0.315 µM). Also, the MIC against Mycobacterium avium is 8 µg/mL (≈ 21 µM); in experiment [8], 4 µg/mL (≈ 10.5 µM); with Mycobacteroides chelonae it was 0.25 µg/mL (≈ 0.657 µM).

In the case of `CC1CC(C(=O)Nc2nc3cc(C(F)(F)F)ccc3s2)CC(C)(C)C1` (stereo not given), the MIC in experiment [1] is 0.12 µg/mL (≈ 0.324 µM); in experiment [2], 0.25 µg/mL (≈ 0.675 µM); in experiment [9], ≤ 0.12 µg/mL; in experiment [4], 0.5 µg/mL (≈ 1.35 µM); in experiment [5], 0.25 µg/mL (≈ 0.675 µM); in experiment [6], 0.25 µg/mL (≈ 0.675 µM). Besides, the minimum inhibitory concentration (MIC) in the experiment with Mycobacterium avium is > 64 µg/mL; in experiment [7], 0.5 µg/mL (≈ 1.35 µM); in experiment [8], > 64 µg/mL; in the experiment on Mycobacteroides chelonae it was 0.25 µg/mL (≈ 0.675 µM).

As to `CC1CC(C(=O)Nc2nc3c(F)cc(Br)cc3s2)CC(C)(C)C1` (stereo not given), the MIC in experiment [1] was found to be 0.5 µg/mL (≈ 1.25 µM); in experiment [2], 2 µg/mL (≈ 5.01 µM); in experiment [3], 1 µg/mL (≈ 2.5 µM); in experiment [4] it was 1 µg/mL (≈ 2.5 µM); in experiment [5] it was 0.5 µg/mL (≈ 1.25 µM); in experiment [6], 0.5 µg/mL (≈ 1.25 µM). Besides, the MIC against Mycobacterium avium is > 64 µg/mL; in experiment [7], 1 µg/mL (≈ 2.5 µM); in experiment [8] it was 16 µg/mL (≈ 40.1 µM); against Mycobacteroides chelonae, 0.25 µg/mL (≈ 0.626 µM).
